Experimental data: patent US6423692B2 (priority 1997, dated 2002)

Assays:
[1] = system: 9L-Neo cells; experiment: Incorporation of ara-C into DNA; type: cell-based, rat; settings: one million cells
Procedure: (§1) Three and 6 h later, labeled cells were harvested, and digested by the addition of 2.5 mg proteinase-K (Boehringer-Mannheim, Indianapolis, Ind.) in 2 ml of 10 mM Tris (pH 7.4), 1 mM EDTA, and 0.5% SDS. Subsequent purification was accomplished by phenol extraction. The nucleic acids were precipitated, centrifuged, treated with RNase A and then assayed for radioactivity [Major, P. D., et al., Proc. Natl. Acad. Sci. USA 78:3235-3239 (1981)].

[2] = system: 9L-WT cells; experiment: Incorporation of ara-C into DNA; type: cell-based, rat; settings: one million cells
Procedure: as §1

[3] = system: intracerebral 9L glioma; type: in vivo, Fischer 344 rats
Procedure: 9L-Neo or 9L-dCK cells (2×10^4) were injected into right caudate nucleus of the brain. Four days later, viral vehicle or 2×10^8 PFU of recombinant adenoviruses were injected into the tumors stereotaxically using the same route of previous 9L inoculation (V).
Four days later, viral vehicle, or 2×10^8 PFU (plaque-forming units) of either the Ad.CMVβgal or Ad.CMVdCK vectors were stereotactically injected into the tumors.
(§4) Implantation of intracerebral tumors. 9L-Neo and 9L-dCK cells were stereotaxically implanted into the right caudate nucleus of Fischer 344 rats using a modification of the method of Kobayashi [Kobayashi, N. et al. J. Neurosurg. […] In brief, male Fischer 344 rats (150-175 g) were anesthetized and placed in a small animal stereotaxic frame (Kopf Instruments). Tumor cells (2×10^4/10 μl) were injected with a 701 Hamilton syringe over 30 s to a depth of 4.5 mm, 1.3 mm posterior and 4 mm to the right of the bregma. […] Statistical significance of survival between different groups was assessed using log rank analysis of Kaplan Meier survival curves.

[4] = system: 9L cells transduced by Ad.CMVdCK; experiment: Cytotoxic assay after adenoviral transduction; type: cell-based; settings: Rattus norvegicus, 24 h
Procedure: (§2) FIGS. 6A and 6B show in vitro sensitivity to ara-C following transduction with dCK-expressing or control virus. 9L cells (2×10^3) were infected as follows: (FIG. 6A) Ad.CMVβgal at MOI 0 (●), 50 (▪), 500 ( ? ); and (FIG. 6B) Ad.CMVdCK at MOI 0 (◯), 50 (□) and 500 ( ? ). […] Cytotoxicity was determined by staining with methylene blue. […] The difference in cell killing was highly statistically significant for cells treated with Ad.CMVdCK at an MOI of 500 (P<0.00 1).
(§3) Cytotoxic assays were performed to determine whether 9L transduction by Ad.CMVdCK confers ara-C sensitivity. Forty-eight hours after transduction, 9L cells were exposed to various concentrations of ara-C for 24 hours. Forty-eight hours later, cells were assayed for cytotoxic effects.

[5] = system: 9L cells transduced by Ad.CMVβgal; experiment: Cytotoxic assay after adenoviral transduction; type: cell-based; settings: Rattus norvegicus; Ad.CMVβgal at different MOIs, 48 h after transduction, 24 hours ara-C
Procedure: as §2, §3

[6] = system: 9L-Neo tumors; experiment: Growth of intradermal tumors in syngeneic rat; type: in vivo, Fischer 344 rats
Procedure: Implantation of intradermal tumors. […] Tumor volume was calculated by multiplying the values of three perpendicular diameters. Statistical analysis was performed using an unpaired, two-tailed, Student's t-test.
Treatment of animals. […] Oncol.

[7] = system: 9L-Neo cells; experiment: cells; type: cell-based; settings: Rattus norvegicus, 120 h, read-out: Cytotoxicity, cell viability
Procedure: Surviving cells were then counted 3 days later. Data represent means+s.e.m. […] Data represent the means +s.e.m. (bars) of five separate experiments.
In order to determine whether the dCK/ara-C-mediated bystander effect is dependent on direct cell-to-cell contact, 9L-Neo cells were plated on the bottom of a microliter transwell either directly with 9L-dCK cells or separated from the 9L-dCK cells by a 3-μm porous membrane. Significant cytotoxicity (38%+2% of control) was also seen in the 9L-Neo cells that were directly mixed in the bottom compartment with the 9L-dCK cells, compared with minimal cytotoxicity (81% of control) when the 9L-Neo cells were separated from the 9L-dCK cells by the membrane (FIG. 3b). The difference in cytotoxicity between cell-to-cell and membrane separated cell killing was statistically significant; P<0.01.

[8] = system: 9L-Neo tumors; experiment: Survival of rats with intracerebral tumors; settings: intracerebral 9L-Neo tumors, ara-C 200 mg/kg; P<0.02
Procedure: 9L-Neo or 9L-dCK cells (2×10^4) were stereotaxically injected into right caudate nucleus of the brain.
In a second experiment, intracerebral tumors were established and rat survival was measured. Secondary to restricted intracranial volume, the survival of rats in this model represents a very reproducible parameter for determining the growth of transplanted tumors or tumor cell lines in vivo.
as §4

Nc1ccn([C@@H]2O[C@H](CO)[C@@H](O)[C@@H]2O)c(=O)n1 [ara-C, 1-β-D-arabinofuranosyl-cytosine]
Incorporation of ara-C into DNA ([1]; 3 hours, 10^−7 M [3H]ara-C): 0.502 ± 0.198 pmol
Incorporation of ara-C into DNA ([1]; 3 hours, 10^−8 M [3H]ara-C): 0.067 ± 0.007 pmol
Incorporation of ara-C into DNA ([1]; 6 hours, 10^−7 M [3H]ara-C): 1.926 ± 0.259 pmol
Incorporation of ara-C into DNA ([1]; 6 hours, 10^−8 M [3H]ara-C): 0.403 ± 0.101 pmol
Incorporation of ara-C into DNA ([2]; 3 hours, 10^−7 M [3H]ara-C): 0.359 ± 0.061 pmol
Incorporation of ara-C into DNA ([2]; 3 hours, 10^−8 M [3H]ara-C): 0.054 ± 0.001 pmol
Incorporation of ara-C into DNA ([2]; 6 hours, 10^−7 M [3H]ara-C): 1.905 ± 0.652 pmol
Incorporation of ara-C into DNA ([2]; 6 hours, 10^−8 M [3H]ara-C): 0.305 ± 0.094 pmol
Survival of animals treated with Ad.CMVdCK and ara-C ([3]; 2×10^8 PFU Ad.CMVdCK intratumoral, versus viral vehicle or Ad.CMVβgal and ara-C, P<0.0005): survived much longer
Survival of vehicle and Ad.CMVβgal injected animals treated with ara-C ([3]; versus PBS-treated animals, P<0.02): longer than that seen in the PBS-treated animals
IC50 ([4]; Ad.CMVdCK MOI 0, 24 hours ara-C): 300 nM
IC50 ([4]; Ad.CMVdCK MOI 50, 24 hours ara-C): 190 nM
IC50 ([4]; Ad.CMVdCK MOI 500, 24 hours ara-C, P<0.001): 80 nM
IC50 [5]: ~300 nM
Tumor size ([6]; intradermal 9L-Neo tumors, ara-C 200 mg/kg s.c. every 8 h for 2 days, two courses): 9556+2272 mm^3
Growth of 9L-Neo tumors, ara-C versus PBS ([6]; intradermal, ara-C 200 mg/kg): no significant difference in the growth
viability at 0.2 µM [7]: 38%
Prolongation of median survival compared with PBS-treated animals [8]: 8 days
